Test results from PubChem BioAssay (NCI).
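Compound exposure: 48 hours, 5 concentrations, 96-well plates. The concentration for full growth arrest is given as TGI.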 Activity calls are given as the source filed them. Rule as the data show it: active = GI50 below about 0.43 µM; inactive = the rest.

Tests used:
Test in all cases: NCI tumour cell line growth inhibition, 48 h
HL-60(TB) leukemia = tested on: HL-60(TB) leukemia
HCT-116 colon = tested on: HCT-116 colon
EKVX NSCLC = tested on: EKVX NSCLC
CAKI-1 renal = tested on: CAKI-1 renal
HOP-62 NSCLC = tested on: HOP-62 NSCLC
MALME-3M melanoma = tested on: MALME-3M melanoma
MDA-MB-435 = tested on: MDA-MB-435
NCI-H522 lung = tested on: NCI-H522 lung
T-47D breast = tested on: T-47D breast
OVCAR-5 ovarian = tested on: OVCAR-5 ovarian
CCRF-CEM leukemia = tested on: CCRF-CEM leukemia
M14 melanoma = tested on: M14 melanoma
A549 NSCLC = tested on: A549 NSCLC
HCT-15 colon = tested on: HCT-15 colon
SR leukemia = tested on: SR leukemia
MCF7 breast = tested on: MCF7 breast
UO-31 renal = tested on: UO-31 renal
HT29 colon = tested on: HT29 colon
K-562 leukemia = tested on: K-562 leukemia
SNB-19 CNS = tested on: SNB-19 CNS
IGROV1 ovarian = tested on: IGROV1 ovarian
KM12 colon = tested on: KM12 colon
SK-MEL-28 melanoma = tested on: SK-MEL-28 melanoma
SK-MEL-5 melanoma = tested on: SK-MEL-5 melanoma
HOP-92 NSCLC = tested on: HOP-92 NSCLC
ACHN renal = tested on: ACHN renal
OVCAR-8 ovarian = tested on: OVCAR-8 ovarian
NCI-H226 lung = tested on: NCI-H226 lung
SN12C renal = tested on: SN12C renal
RPMI-8226 leukemia = tested on: RPMI-8226 leukemia
OVCAR-4 ovarian = tested on: OVCAR-4 ovarian
SF-539 CNS = tested on: SF-539 CNS
TK-10 renal = tested on: TK-10 renal
A498 renal = tested on: A498 renal
SK-MEL-2 melanoma = tested on: SK-MEL-2 melanoma
U251 CNS = tested on: U251 CNS
OVCAR-3 ovarian = tested on: OVCAR-3 ovarian
HS 578T breast = tested on: HS 578T breast
SF-295 CNS = tested on: SF-295 CNS
LOX IMVI melanoma = tested on: LOX IMVI melanoma
HCC-2998 colon = tested on: HCC-2998 colon
MDA-N = tested on: MDA-N
PC-3 prostate = tested on: PC-3 prostate
UACC-62 melanoma = tested on: UACC-62 melanoma
SNB-75 CNS = tested on: SNB-75 CNS
MDA-MB-231 breast = tested on: MDA-MB-231 breast
786-0 renal = tested on: 786-0 renal
COLO 205 colon = tested on: COLO 205 colon
SK-OV-3 ovarian = tested on: SK-OV-3 ovarian
SW-620 colon = tested on: SW-620 colon
DU-145 prostate = tested on: DU-145 prostate
MOLT-4 leukemia = tested on: MOLT-4 leukemia
BT-549 breast = tested on: BT-549 breast
NCI/ADR-RES ovarian = tested on: NCI/ADR-RES ovarian
SF-268 CNS = tested on: SF-268 CNS
NCI-H23 lung = tested on: NCI-H23 lung
UACC-257 melanoma = tested on: UACC-257 melanoma
NCI-H460 lung = tested on: NCI-H460 lung

O=c1cc(-c2ccc(O)c(O)c2-c2c(O)cc(O)c3c(=O)cc(-c4ccc(O)c(O)c4)oc23)oc2cc(O)cc(O)c12
outcome (HL-60(TB) leukemia): inactive
outcome (HCT-116 colon): inactive
outcome (EKVX NSCLC): inactive
outcome (CAKI-1 renal): inactive
outcome (HOP-62 NSCLC): inactive
outcome (MALME-3M melanoma): inactive
outcome (MDA-MB-435): inactive
outcome (NCI-H522 lung): inactive
outcome (T-47D breast): inactive
outcome (OVCAR-5 ovarian): inactive
outcome (CCRF-CEM leukemia): inactive
outcome (M14 melanoma): inactive
outcome (A549 NSCLC): inactive
outcome (HCT-15 colon): inactive
outcome (SR leukemia): inactive
outcome (MCF7 breast): inactive
outcome (UO-31 renal): inactive
outcome (HT29 colon): inactive
outcome (K-562 leukemia): inactive
outcome (SNB-19 CNS): inactive
outcome (IGROV1 ovarian): inactive
outcome (KM12 colon): inactive
outcome (SK-MEL-28 melanoma): inactive
outcome (SK-MEL-5 melanoma): inactive
outcome (HOP-92 NSCLC): inactive
outcome (ACHN renal): inactive
outcome (OVCAR-8 ovarian): inactive
outcome (NCI-H226 lung): inactive
outcome (SN12C renal): inactive
outcome (RPMI-8226 leukemia): inactive
outcome (OVCAR-4 ovarian): inactive
outcome (SF-539 CNS): inactive
outcome (TK-10 renal): inactive
outcome (A498 renal): inactive
outcome (SK-MEL-2 melanoma): inactive
outcome (U251 CNS): inactive
outcome (OVCAR-3 ovarian): inactive
outcome (HS 578T breast): inactive
outcome (SF-295 CNS): inactive
outcome (LOX IMVI melanoma): inactive
outcome (HCC-2998 colon): inactive
outcome (MDA-N): inactive
outcome (PC-3 prostate): inactive
outcome (UACC-62 melanoma): inactive
outcome (SNB-75 CNS): inactive
outcome (MDA-MB-231 breast): inactive
outcome (786-0 renal): inactive
outcome (COLO 205 colon): inactive
outcome (SK-OV-3 ovarian): inactive
outcome (SW-620 colon): inactive
outcome (DU-145 prostate): inactive
outcome (MOLT-4 leukemia): inactive
outcome (BT-549 breast): inactive
outcome (NCI/ADR-RES ovarian): inactive
outcome (SF-268 CNS): inactive
outcome (NCI-H23 lung): inactive
outcome (UACC-257 melanoma): inactive

COC(=O)c1cc2/c(=N/O)c3ccccc3sc2o1
TGI (HL-60(TB) leukemia): > 100 µM
TGI (HCT-116 colon): > 100 µM
TGI (EKVX NSCLC): > 100 µM
TGI (CAKI-1 renal): > 100 µM
TGI (HOP-62 NSCLC): > 100 µM
TGI (MALME-3M melanoma): > 100 µM
TGI (MDA-MB-435): > 100 µM
TGI (NCI-H522 lung): > 100 µM
TGI (T-47D breast): > 100 µM
TGI (OVCAR-5 ovarian): > 100 µM
TGI (CCRF-CEM leukemia): > 100 µM
TGI (M14 melanoma): > 100 µM
TGI (A549 NSCLC): > 100 µM
TGI (HCT-15 colon): > 100 µM
TGI (SR leukemia): > 100 µM
TGI (MCF7 breast): > 100 µM
TGI (HT29 colon): > 100 µM
TGI (K-562 leukemia): > 100 µM
TGI (SNB-19 CNS): > 100 µM
TGI (IGROV1 ovarian): > 100 µM
TGI (KM12 colon): > 100 µM
TGI (NCI-H460 lung): > 100 µM
TGI (SK-MEL-28 melanoma): > 100 µM
TGI (SK-MEL-5 melanoma): > 100 µM
TGI (HOP-92 NSCLC): > 100 µM
TGI (ACHN renal): > 100 µM
TGI (OVCAR-8 ovarian): > 100 µM
TGI (NCI-H226 lung): > 100 µM
TGI (SN12C renal): > 100 µM
TGI (RPMI-8226 leukemia): > 100 µM
TGI (OVCAR-4 ovarian): > 100 µM
TGI (SF-539 CNS): > 100 µM
TGI (TK-10 renal): > 100 µM
TGI (A498 renal): > 100 µM
TGI (SK-MEL-2 melanoma): > 100 µM
TGI (U251 CNS): > 100 µM
TGI (OVCAR-3 ovarian): > 100 µM
TGI (HS 578T breast): > 100 µM
TGI (SF-295 CNS): > 100 µM
TGI (LOX IMVI melanoma): > 100 µM
TGI (HCC-2998 colon): > 100 µM
TGI (MDA-N): > 100 µM
TGI (PC-3 prostate): > 100 µM
TGI (UACC-62 melanoma): > 100 µM
TGI (SNB-75 CNS): > 100 µM
TGI (MDA-MB-231 breast): > 100 µM
TGI (786-0 renal): > 100 µM
TGI (COLO 205 colon): > 100 µM
TGI (SK-OV-3 ovarian): > 100 µM
TGI (SW-620 colon): > 100 µM
TGI (DU-145 prostate): > 100 µM
TGI (MOLT-4 leukemia): > 100 µM
TGI (BT-549 breast): > 100 µM
TGI (NCI/ADR-RES ovarian): > 100 µM
TGI (SF-268 CNS): > 100 µM
TGI (NCI-H23 lung): > 100 µM
TGI (UACC-257 melanoma): > 100 µM
